Paper PMC9368227, “Investigation of Radiotracer Metabolic Stability In Vitro with CYP-Overexpressing Hepatoma Cell Lines” (Cells, 2022)

System: HepG2 CYP1A2
Test: Competitive coincubation of [18F]1 with competitors, HepG2 CYP1A2
Conditions: 1 h; competitor 1 or 10 µM
Experimental: Radio thin-layer chromatography (radio-TLC) was carried out on reversed-phase TLC plates (ALUGRAM RP-18W/UV254 from Macherey-Nagel, Düren, Germany) with a mobile phase of 45% ACN in water containing 0.1% trifluoroacetic acid. The samples (2 µL) were spotted onto the TLC plate. The line of origin and the front line were labeled with 1/5 of the sample activity concentration. To track the Rf value of the intact radiotracer, each TLC was spotted with the intact tracer as reference in the middle. Detection of the activity signals was achieved after 10–30 min development on radioluminographic imaging plates (FUJIFILM, Tokyo, Japan) and subsequent readout with Fuji BAS 5000® or Amersham™ Typhoon™ from GE Healthcare (Uppsala, Sweden). The resulting chromatographic profile was analyzed and integrated with the help of AIDA Image Analysis Software (version 5.1). For data depiction, the fraction of each species (intact radiotracer, metabolite, [^18F]fluoride) was plotted.
Incubations were conducted for up to 2 h in a 96-well plate in KHB with a total incubation volume of 50 µL and an ethanol concentration of 0.4%. For the incubation with radiotracers, an activity of 100–200 kBq/well at the start of the experiment was used.
Our last interest within this study was to test if the tracer itself could function as an indicator for the conversion of other substrates acting via inhibition of or competition with the CYP enzymes. In this regard, alternative substrates were added to the incubation mixtures with [^18F]1. The investigated substrates covered testosterone, caffeine, progesterone, compound 3, tebufelone, and RWJ63556 [44] (10 µM for all substances). Furthermore, the influence of testosterone on the metabolic turnover of [^18F]1 was investigated over a concentration range of 1–50 µM.
Figure 7 Coincubation of [^18F]1 and different competitors with (A) HepG2 CYP1A2 and (B) HepG2 CYP2C19. […] Each competitor/inhibitor was incubated with [^18F]1 for 1 h followed by radio-TLC analysis. Activity concentrations of 94–197 kBq/well (1.9–3.9 MBq/mL) were used at start of experiment, which correspond to a concentration of 120–125 nM. Statistical analysis performed with Dunnett’s multiple comparison (post hoc test) according to the intact tracer amount (* p < 0.05; *** p < 0.001; **** p < 0.0001; n = 4).

SMILES | Effect of coincubation on metabolic profile / intact [18F]1 (in words)
Cc1ccc(-c2cc(CCF)nn2-c2ccc(S(C)(=O)=O)cc2)cc1 [compound 3] | slightly increased the intact tracer amount
Cn1c(=O)c2c(ncn2C)n(C)c1=O [caffeine] | no change in the metabolic profile
